# Source: ChEMBL document CHEMBL1157539, “Thousands of chemical starting points for antimalarial lead identification” (Nature, 2010)
# System: Plasmodium falciparum
# Assay: GSK_TCMDC: Inhibition of Plasmodium falciparum 3D7 in whole erythrocytes, using parasite LDH activity as an index of growth.
# Assay type: functional, organism-based
# Conditions: Plasmodium falciparum, 3D7
row,Compound,XC50 [nM]
1,C=C1C[C@@H](n2cnc3c(NC(=O)c4ccccc4)ncnc32)[C@@H](F)[C@@H]1OC(c1ccccc1)(c1ccccc1)c1ccccc1,145
2,O=C(/C=C/c1ccc(Cl)c(Cl)c1)NCCCCCN1CCCN(C(=O)Nc2ccc(Cl)cc2)CC1,735
3,O=C(/C=C/c1ccc(Cl)c(Cl)c1)NCCC(CN1CCC(c2c[nH]c3ccccc23)CC1)c1ccccc1 (stereo not drawn),570
4,CC1CCN(C(=O)C(Cc2c[nH]c3ccccc23)NS(=O)(=O)c2ccc(Cl)cc2)CC1 (stereo not drawn),717
5,CCCCc1ccc2[nH]c(NC(=O)OC)nc2c1 [PARBENDAZOLE],683
6,CC(C)Oc1cc2c(cc1NS(=O)(=O)c1ccc(-c3ccc(Cl)cc3)cc1)CCN(C)CC2,1040
7,CCCc1cc(OC)c(C[C@H]2c3cc(O)c(Cl)cc3CCN2C)cc1OC,576
8,COc1cccc(CNC(=O)[C@@H]2CN(C(=O)c3ccccc3)CCN2)c1,1160
9,Cn1cc(CCNc2ccnc(NCCc3coc4ccccc34)n2)c2ccccc21,1060
10,CCCCCC(C)(C)NC[C@@H](O)[C@H](Cc1ccccc1)NC(=O)c1cc(NCC)cc(N2CCCC2=O)c1,674
11,COc1ccccc1N1CCN(Cc2cc(C(C)C)c(C)cc2O)CC1,572
12,CC(Cc1ccc(OCc2ccc(CCN(C)C)cc2)cc1)NCCc1cccc(Cl)c1 (stereo not drawn),769
13,N#Cc1ccc2c(c1)CCN(CCC1CCC(NC(=O)/C=C/c3cccc4ccccc34)CC1)CC2 (stereo not drawn),729
14,COc1ccc(-c2cccc(NC(=O)c3ccc(C#N)cc3)c2)cc1CN1CCCC1,696
15,CC(C)c1cccc(OCC2CCN(c3ncc(C(=O)NC4CC4)cc3Cl)CC2)c1,681
16,CS(=O)(=O)N(CC(O)Cn1c2ccc(Cl)cc2c2cc(Cl)ccc21)c1ccccc1 (stereo not drawn),897
17,Cc1ccc(/C=C/C(=O)N2CCC(CCN3CCC(c4c[nH]c5ccccc45)CC3)CC2)cc1C,926
18,CCC(C)CC(=O)Nc1ccc(OC)c(S(=O)(=O)N[C@@H]2CCN(C#N)C2)c1 (stereo partly drawn),1490
19,Cc1[nH]c(/C=C2\C(=O)Nc3ccc(S(=O)(=O)Cc4c(Cl)cccc4Cl)cc32)c(C)c1C(=O)N1CCC[C@@H]1CN1CCCC1 [PHA-665752],720
20,Fc1ccccc1-c1cc(Nc2ccncc2)nc(-c2cccnc2)n1,258
21,Cc1cc(N(C)C2CCN(C)C2)nc(Nc2ccc(Cl)cc2)n1 (stereo not drawn),336
22,CC(Oc1cc(-n2cnc3ccc(NC(=O)CCN4CCCCC4)cc32)sc1C(N)=O)c1ccccc1Cl (stereo not drawn),400
23,N#Cc1ccc(N/C(=N\c2ccc(-c3ccccc3)cc2)NC2CCCc3ccccc32)c(O)c1 (stereo not drawn),776

row,Compound,XC50 [nM]
1,O=C(/C=C/c1ccc(Cl)c(Cl)c1)NC1CCN(Cc2ccc(O)cc2)C1 (stereo not drawn),952
2,COc1cccc(-c2cccc(NC(=O)C3CCN(Cc4ccc(O)cc4)CC3)c2)c1,1030
3,CCCCN(CCCC)C(=O)CC(O)c1cc2c(Cl)cc(Cl)cc2c2cc(C(F)(F)F)ccc12 (stereo not drawn),1210
4,Cn1cncc1CCCN(Cc1ccc(-c2ccc(C(F)(F)F)cc2)cc1)C(=O)Cn1c(CCc2cccc(F)c2F)cc(=O)c2cccnc21,1250
5,CC1(C)NC(N)=NC(=N)N1OCCCOc1c(Cl)cc(Cl)cc1Cl,2.94
6,CC(C)N1CCC(N(Cc2ccc(-c3ccc(C(F)(F)F)cc3)cc2)C(=O)Cn2c(CCc3cccc(F)c3F)nc(=O)c3cccnc32)CC1,642
7,CCCCOP(=O)(OCCCC)C(=Cc1ccc(O)c2ccccc12)P(=O)(OCCCC)OCCCC,1070
8,COc1cc(CNCCCNc2cc(=O)c3ccccc3[nH]2)c2c(c1)C(C)CN2C(=O)OC(C)(C)C (stereo not drawn),734
9,COc1ccc(CNC2Cc3ccccc3C2)cc1-c1ccc(S(=O)(=O)NCCN2CCCC2)cc1,582
10,COc1ccc2nc(-c3ccccc3)cc(NCCCNc3cc(-c4ccccc4)nc4ccc(OC)cc34)c2c1,122
11,CSc1ccccc1NC(=S)NC1CCN(CCCCCNC(=O)/C=C/c2ccc(Cl)c(Cl)c2)CC1,778
12,N=C(N)NN=Cc1c2ccccc2c(Cl)c2ccc(Cl)cc12,225
13,Cn1nccc1C(=O)NCCNCc1ccc(-c2cccc(-c3nc4cc(F)ccc4[nH]3)c2)cc1,218
14,O=C(Nc1ccccc1)NC1CCN(CCC2(c3ccc(Cl)c(Cl)c3)COCN(C(=O)c3ccccc3)C2)C1 (stereo not drawn),880
15,COc1ccc2nccc([C@@H](O)CN3CCC(NC(=O)C(c4ccccc4C)N4CCC(Cc5ccccc5)CC4)CC3)c2c1 (stereo partly drawn),261
16,CN1CCC(N2CCN(CCOc3cc(NC(=O)/C=C/c4ccccc4Cl)ccc3Br)CC2)CC1,360
17,FC(F)(F)c1cccc2c(NN=Cc3ccccc3)ccnc12,624
18,CCc1cn2c3c(cc(C(=O)N[C@@H](Cc4cccc(F)c4)[C@H](O)CNC4CCOCC4)cc13)N(C)S(=O)(=O)CC2,68.1
19,COc1c(C2CCN(CCCCNC(=O)c3ccc(-c4ccc(C(F)(F)F)cc4)c(C(=O)OC(C)C)c3)CC2)ccc2c1CCCC2,858
20,CC(C)c1ccc(CN(C)CCCCNC(=O)c2ccc(NC(=O)c3ccc(Cl)cc3)cc2)cc1,994
21,O=C(Cc1cc(=O)oc2cc(O)ccc12)N1CCC(CN2CCC(c3c[nH]c4ccccc34)CC2)CC1,870
22,O=S(=O)(NC1CCC(CN2CCC(c3c[nH]c4ccccc34)CC2)CC1)c1ccc(Cl)c(Cl)c1 (stereo not drawn),817
23,N=C(N)c1ccc2[nH]c(SCc3ccccc3)nc2c1,687

row,Compound,XC50 [nM]
1,CC(C)c1ccc(NC(=O)c2ccc(C(=O)NC3CCN(Cc4ccsc4)C3)cc2)cc1 (stereo not drawn),1030
2,COc1cc2nc(N[C@@H](CO)c3ccccc3)nc(NCc3ccccc3)c2cc1OC,657
3,CC(C)OC(=O)c1cccnc1SCC(=O)Nc1ccc(C(F)(F)F)cc1Cl,400
4,Cc1[nH]c2ccccc2c1C1=CCN(CCN2CCCc3c(Br)cccc3C2=O)CC1,659
5,CC(=O)Nc1cccc(CNCc2ccc(-c3cnc(N4CCCC(C)(C)C4)nc3)cc2)c1,822
6,CCCCCc1cc(O)c2c3c(c(=O)oc2c1)CN(C)CC3,121
7,COc1ccccc1N1CCN(CCCCNC(=O)c2ccc(NC(=O)c3ccc4ccccc4c3)cc2)CC1,800
8,N#Cc1ccc(-c2cnc3ccc(NCCc4cccnc4)nn23)cc1,255
9,CCN(CC)CCN(CCN(CC)CC)c1ccc2c(c1)Sc1c(Cl)ccc(Cl)c1S2,876
10,CCOc1cc2ncnc(Nc3ccc(OCc4c(F)cccc4F)c(OC)c3)c2cc1OCC,821
11,Cc1cc(N[C@@H](Cc2ccccc2)C(=O)NCCOc2ccccc2)nc(Nc2ccccc2)n1,875
12,Cc1cc(N[C@@H](Cc2ccccc2)C(=O)NCCOc2ccccc2)nc(NCCOc2ccccc2)n1,1360
13,COc1ccc(OC)c(NC(=O)c2c(-c3c(F)cccc3Cl)noc2C)c1,701
14,CN(C)c1ccc(NC(=O)Nc2ccnc3ccc(Br)cc23)cc1,872
15,CC1N=C(N)N=C(N)N1OCc1cccc2ccccc12 (stereo not drawn),3.2
16,COc1c(CCNCCCCNCCc2cc(Cl)c3ccccc3c2OC)cc(Cl)c2ccccc12,168
17,O=C(/C=C/c1ccc(Cl)c(Cl)c1)NCCCCCN1CCC(NC(=O)Nc2ccccc2F)CC1,839
18,O=C(/C=C/c1ccc(Cl)c(Cl)c1)NCCCCCN1CCCN(C(=O)Nc2cc(Cl)nc(Cl)c2)CC1,786
19,Cn1cncc1-c1ccc2ncnc(Nc3ccc(OCc4ccccc4)cc3)c2c1,1340
20,Cc1cnc(C[S+]([O-])c2nc3cc(C(F)(F)F)ccc3[nH]2)cc1OCc1ccccc1 (stereo not drawn),742
21,Cc1cc(C2CCN(CCCCNC(=O)c3ccc(-c4ccc(C(F)(F)F)cc4)cc3)CC2)c(C)cc1OCCO,885
22,COc1ccc(NC(=O)Nc2ccc(-c3ccncc3)c(Cl)c2)cc1N1CCN(C)CC1,755
